# According to patent US20060025458A1, “Alkylammonium compounds as antifungal and antitrypanosomal agents” (University of Connecticut, priority 2004, published 2006):
# Assays:
# [1] = tested on: endogenous PtdSer decarboxylase activity; test: Serine labeling: PtdEtn formation from PtdSer in P. falciparum-infected erythrocytes; format: cell-based, Plasmodium falciparum
# Method: FIG. 10B. Effect of G25 on PtdEtn and PtdSer synthesis from serine. 5-6×10^7 synchronized P. falciparum-infected erythrocytes (7% trophozoite stage) were pre-incubated at 4% haematocrit for 1 h in RPMI-based medium containing the indicated concentration of G25 before adding 10 μM [^14C]-serine (57 mCi/mmol). After incubation at 37° C. for 3 h, the cellular lipids were extracted and fractionated on TLC plates for quantification of radioactivity in PtdSer (black diamonds), and PtdEtn (white circles).
# Labeling Studies and Phospholipid Analysis in P. falciparum: Nigerian strains of P. falciparum were asexually cultured in the presence of basic medium (RPMI 1640 supplemented with 25 mM Hepes, pH 7.4) and 10% AB^+ human serum (Trager and Jensen, 1976). Parasite synchronization was obtained with three successive 5% sorbitol treatments (Lambros and Vanderberg, 1979). Synchronized P. falciparum-infected erythrocytes (7-10% parasitemia, trophozoites) were pre-incubated for 1 hour at 37° C. at 4% hematocrit in 2 ml (final volume) basic medium in the absence or the presence of different concentrations of the compound G25. The appropriate radioactive precursor of lipid metabolism was added followed by further 3 h of incubation. […] The silica gel of the lipid spots were scraped directly into scintillation vials containing 3 ml of liquid-scintillation fluid and counted in a Beckman LS 5000 spectrophotometer. The amount of labeled precursors incorporated into cellular lipids (nmol×10^7 cell^−1×h^−1) was computed on the basis of radioactivity incorporated into lipids and the specific activity of the precursors in the incubation medium.
# The possible inhibition of PtdSer decarboxylase activity in P. falciparum by G25 was investigated. P. falciparum-infected erythrocytes were labeled with radiolabeled serine, which is readily incorporated into PtdSer, in the presence or absence of increasing concentrations of G25, and the effect of this compound on the parasite endogenous PtdSer decarboxylase activity was measured by following the formation of PtdEtn from PtdSer (FIG. 10B). […]
# [2] = tested on: S. cerevisiae; test: Liquid growth inhibition assay of S. cerevisiae (OD600); format: cell-based, Saccharomyces cerevisiae
# Method: Strains and Growth Conditions: Wild-type (BY4741: Mata his3Δ1 leu2Δ0 met15Δ0 ura3Δ0) and mutant (hnm1Δ, psd1Δ, cki1Δ, pem1Δ, ept1Δ, cpt1Δ, eki1Δ, psd2Δ, pct1Δ, ect1Δ, pem2Δ) S. cerevisiae strains used in this study were purchased from Research Genetics (Invitrogen, USA). These strains were grown on YPD (1% yeast extract, 2% dextrose and 2% peptone) or synthetic complete medium (SD, 1.7% yeast nitrogen base, 5% ammonium sulfate and 2% dextrose). The Nigerian strain of P. falciparum was propagated in human red blood cells at 4% hematocrit by the method of Trager and Jensen (1976). Plate growth assays were performed by growing wild-type and mutant yeast strains in YPD to mid-log phase. Cultures were serially diluted 1:10 starting with a density of 3×10^7 cells/ml. The growth of cells was monitored by spotting 3 μl of each dilution onto solid medium in the absence or presence of 5 μM of G25.
# Twenty-one analogs including first, second and third generation (E2a, E6, E9, E13, E24, F4, G2, G4, G5, G14, GI5, G25, H5, L1, L4, M34, M53, MS1, T3 and T4) compounds (provided by Dr. Henri Vial, City, Country) were tested (FIG. 4). The choice of the compounds was such that they represent all possible structural features introduced during the optimization process for enhancing antimalarial activity as determined using the combinatorial chemistry techniques.
# The antimalarial drug G25 inhibits the growth of Saccharomyces cerevisiae. […] Growth inhibition was assessed by measuring the OD600 and comparing it to that of the wild-type strain grown under the same conditions in the absence of the compound. […] This IC50 value is in the range of the predicted intracellular concentration of G25 in P. falciparum due to the accumulative properties inside the infected erythrocytes.
# [3] = tested on: P. falciparum and P. cynomolgi; conditions: very low doses; cited from earlier work
# [4] = tested on: P. falciparum; conditions: cited from earlier work
smiles,measurement,setting,value
"C[N+]1(CCCCCCCCCCCCCCCC[N+]2(C)CCCC2)CCCC1.[Br-].[Br-] [G25, 1,16-hexadecamethylenebis[N-methylpyrrolidinium]dibromide]",decrease in the pool of PtdEtn formed from PtdSer,[1]; 100 μM G25,77%
same,effect on first step of the CDP-DAG pathway catalyzed by PtdSer synthase,[1]; 100 μM G25,no effect
same,total incorporation of serine,[1]; increasing concentrations of G25,not affected
same,Inhibition of S. cerevisiae growth (in words),"[2]; structure-activity comparison, Examples 2-4",inhibited
same,IC50,"[2]; wild-type strain BY4741, 1×10^4 cells/ml, liquid medium, 30° C., 16 h, read-out: IC50, inhibition of yeast growth",2.5 µM
same,malaria infection in monkeys,[3],cleared malaria infection
same,IC50,"[4]; in vitro, literature, read-out: IC50, P. falciparum",0.0012 µM
same,IC90/IC50 ratios,[4]; multidrug resistant laboratory and clinical isolates,less than 3
